Data from publication PMC6979384, “Characterization of the plant homeodomain (PHD) reader family for their histone tail interactions” (Epigenetics & Chromatin, 2020).

What was measured:
Assay in all cases: Histone peptide microarray
Assay type in all cases: binding, human
AIRE (PP) = conditions: GST-tagged AIRE (PP); for Array Heatmap signal (histone peptide microarray): sheet Array Heatmap, each array performed twice, total n = 4
In short: (§1)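 Mean ± SD of 4 replicate array intensities; GST-PHD finger at 0.5 μM against 293 PTM-bearing histone peptides.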

BAZ2B = conditions: GST-tagged BAZ2B; for Array Heatmap signal (histone peptide microarray): sheet Array Heatmap, each array performed twice, total n = 4
In short: as §1

BPTF (PB) = conditions: GST-tagged BPTF (PB = PHD + Bromodomain); for Array Heatmap signal (histone peptide microarray): sheet Array Heatmap, each array performed twice, total n = 4
In short: as §1

CHD4 (PPCC) = conditions: GST-tagged CHD4 (PPCC = Dual PHD + Dual Chromodomain); for Array Heatmap signal (histone peptide microarray): sheet Array Heatmap, each array performed twice, total n = 4
In short: as §1

CHD5 (PCC) = conditions: GST-tagged CHD5 (PCC = PHD + Dual Chromodomain); for Array Heatmap signal (histone peptide microarray): sheet Array Heatmap, each array performed twice, total n = 4
In short: as §1

CHD5 (PPCC) = conditions: GST-tagged CHD5 (PPCC = Dual PHD + Dual Chromodomain); for Array Heatmap signal (histone peptide microarray): sheet Array Heatmap, each array performed twice, total n = 4
In short: as §1

DIDO1 = conditions: GST-tagged DIDO1; for Array Heatmap signal (histone peptide microarray): sheet Array Heatmap, each array performed twice, total n = 4
In short: as §1

DPF2 (PPC2W2) = conditions: GST-tagged DPF2 (PPC2W2 = Dual PHD + C2W2-type Zn-finger); for Array Heatmap signal (histone peptide microarray): sheet Array Heatmap, each array performed twice, total n = 4
In short: as §1

ING1 = conditions: GST-tagged ING1; for Array Heatmap signal (histone peptide microarray): sheet Array Heatmap, each array performed twice, total n = 4
In short: as §1

ING2 = conditions: GST-tagged ING2; for Array Heatmap signal (histone peptide microarray): sheet Array Heatmap, each array performed twice, total n = 4
In short: as §1

ING3 = conditions: GST-tagged ING3; for Array Heatmap signal (histone peptide microarray): sheet Array Heatmap, each array performed twice, total n = 4
In short: as §1

ING4 = conditions: GST-tagged ING4; for Array Heatmap signal (histone peptide microarray): sheet Array Heatmap, each array performed twice, total n = 4
In short: as §1

ING5 = conditions: GST-tagged ING5; for Array Heatmap signal (histone peptide microarray): sheet Array Heatmap, each array performed twice, total n = 4
In short: as §1

KDM4C (TTP) = conditions: GST-tagged KDM4C (TTP = Tandem Tudor domain + PHD); for Array Heatmap signal (histone peptide microarray): sheet Array Heatmap, each array performed twice, total n = 4
In short: as §1

KDM5A (1) = conditions: GST-tagged KDM5A (1); for Array Heatmap signal (histone peptide microarray): sheet Array Heatmap, each array performed twice, total n = 4
In short: as §1

KDM5A (3) = conditions: GST-tagged KDM5A (3); for Array Heatmap signal (histone peptide microarray): sheet Array Heatmap, each array performed twice, total n = 4
In short: as §1

KDM5B (1) = conditions: GST-tagged KDM5B (1); for Array Heatmap signal (histone peptide microarray): sheet Array Heatmap, each array performed twice, total n = 4
In short: as §1

KDM5B (3) = conditions: GST-tagged KDM5B (3); for Array Heatmap signal (histone peptide microarray): sheet Array Heatmap, each array performed twice, total n = 4
In short: as §1

KDM7A = conditions: GST-tagged KDM7A; for Array Heatmap signal (histone peptide microarray): sheet Array Heatmap, each array performed twice, total n = 4
In short: as §1

MLL5 = conditions: GST-tagged MLL5; for Array Heatmap signal (histone peptide microarray): sheet Array Heatmap, each array performed twice, total n = 4
In short: as §1

MORC3 (CW) = conditions: GST-tagged MORC3 (CW = CW-type Zn-finger); for Array Heatmap signal (histone peptide microarray): sheet Array Heatmap, each array performed twice, total n = 4
In short: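 A peptide microarray holding 293 synthetic histone peptides with individual or combinatorial modifications was probed with each GST-PHD protein at 0.5 μM. Values represent mean intensity (±SD) from four replicates.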

PHF13 = conditions: GST-tagged PHF13; for Array Heatmap signal (histone peptide microarray): sheet Array Heatmap, each array performed twice, total n = 4
In short: as §1

PHF21A = conditions: GST-tagged PHF21A; for Array Heatmap signal (histone peptide microarray): sheet Array Heatmap, each array performed twice, total n = 4
In short: as §1

PHF23 = conditions: GST-tagged PHF23; for Array Heatmap signal (histone peptide microarray): sheet Array Heatmap, each array performed twice, total n = 4
In short: as §1

PHF2 = conditions: GST-tagged PHF2; for Array Heatmap signal (histone peptide microarray): sheet Array Heatmap, each array performed twice, total n = 4
In short: as §1

PHF8 = conditions: GST-tagged PHF8; for Array Heatmap signal (histone peptide microarray): sheet Array Heatmap, each array performed twice, total n = 4
In short: as §1

PHRF1 (RP) = conditions: GST-tagged PHRF1 (RP); for Array Heatmap signal (histone peptide microarray): sheet Array Heatmap, each array performed twice, total n = 4
In short: as §1

RAG2 = conditions: GST-tagged RAG2; for Array Heatmap signal (histone peptide microarray): sheet Array Heatmap, each array performed twice, total n = 4
In short: as §1

SP140L = conditions: GST-tagged SP140L; for Array Heatmap signal (histone peptide microarray): sheet Array Heatmap, each array performed twice, total n = 4
In short: as §1

TAF3 = conditions: GST-tagged TAF3; for Array Heatmap signal (histone peptide microarray): sheet Array Heatmap, each array performed twice, total n = 4
In short: as §1

TRIM66 (PB) = conditions: GST-tagged TRIM66 (PB = PHD + Bromodomain); for Array Heatmap signal (histone peptide microarray): sheet Array Heatmap, each array performed twice, total n = 4
In short: as §1

[1] = histone peptide array, arrays performed twice, n of 4

Substance: H3K4me3 + K14ac: H3 1-20
- Array Heatmap signal (histone peptide microarray) (AIRE (PP)): 0.3995
- Array Heatmap signal (histone peptide microarray) (BAZ2B): 0.6127
- Array Heatmap signal (histone peptide microarray) (BPTF (PB)): 0.8401
- Array Heatmap signal (histone peptide microarray) (CHD4 (PPCC)): 0.6173
- Array Heatmap signal (histone peptide microarray) (CHD5 (PCC)): 0.7404
- Array Heatmap signal (histone peptide microarray) (CHD5 (PPCC)): 0.5519
- Array Heatmap signal (histone peptide microarray) (DIDO1): 1
- Array Heatmap signal (histone peptide microarray) (DPF2 (PPC2W2)): 0.7495
- Array Heatmap signal (histone peptide microarray) (ING1): 0.9202
- Array Heatmap signal (histone peptide microarray) (ING2): 0.9757
- Array Heatmap signal (histone peptide microarray) (ING3): 0.9261
- Array Heatmap signal (histone peptide microarray) (ING4): 0.6504
- Array Heatmap signal (histone peptide microarray) (ING5): 0.4275
- Array Heatmap signal (histone peptide microarray) (KDM4C (TTP)): 0.599
- Array Heatmap signal (histone peptide microarray) (KDM5A (1)): 0.4609
- Array Heatmap signal (histone peptide microarray) (KDM5A (3)): 0.8892
- Array Heatmap signal (histone peptide microarray) (KDM5B (1)): 0.7346
- Array Heatmap signal (histone peptide microarray) (KDM5B (3)): 0.7921
- Array Heatmap signal (histone peptide microarray) (KDM7A): 0.4569
- Array Heatmap signal (histone peptide microarray) (MLL5): 0.8336
- Array Heatmap signal (histone peptide microarray) (MORC3 (CW)): 0.8691
- Array Heatmap signal (histone peptide microarray) (PHF13): 0.8156
- Array Heatmap signal (histone peptide microarray) (PHF21A): 0.4155
- Array Heatmap signal (histone peptide microarray) (PHF23): 0.8632
- Array Heatmap signal (histone peptide microarray) (PHF2): 0.9532
- Array Heatmap signal (histone peptide microarray) (PHF8): 0.6468
- Array Heatmap signal (histone peptide microarray) (PHRF1 (RP)): 0.6002
- Array Heatmap signal (histone peptide microarray) (RAG2): 0.9484
- Array Heatmap signal (histone peptide microarray) (SP140L): 0.3446
- Array Heatmap signal (histone peptide microarray) (TAF3): 0.7363
- Array Heatmap signal (histone peptide microarray) (TRIM66 (PB)): 0.6346

Substance: H3K4me3 + K18ac: H3 1-20
- Array Heatmap signal (histone peptide microarray) (AIRE (PP)): 0.4183
- Array Heatmap signal (histone peptide microarray) (BAZ2B): 0.4486
- Array Heatmap signal (histone peptide microarray) (BPTF (PB)): 0.7125
- Array Heatmap signal (histone peptide microarray) (CHD4 (PPCC)): 0.6241
- Array Heatmap signal (histone peptide microarray) (CHD5 (PCC)): 0.8106
- Array Heatmap signal (histone peptide microarray) (CHD5 (PPCC)): 0.5532
- Array Heatmap signal (histone peptide microarray) (DIDO1): 0.9924
- Array Heatmap signal (histone peptide microarray) (DPF2 (PPC2W2)): 0.7175
- Array Heatmap signal (histone peptide microarray) (ING1): 1
- Array Heatmap signal (histone peptide microarray) (ING2): 0.9902
- Array Heatmap signal (histone peptide microarray) (ING3): 0.7492
- Array Heatmap signal (histone peptide microarray) (ING4): 0.674
- Array Heatmap signal (histone peptide microarray) (ING5): 0.4874
- Array Heatmap signal (histone peptide microarray) (KDM4C (TTP)): 0.6519
- Array Heatmap signal (histone peptide microarray) (KDM5A (1)): 0.4457
- Array Heatmap signal (histone peptide microarray) (KDM5A (3)): 0.9747
- Array Heatmap signal (histone peptide microarray) (KDM5B (1)): 0.7261
- Array Heatmap signal (histone peptide microarray) (KDM5B (3)): 0.8599
- Array Heatmap signal (histone peptide microarray) (KDM7A): 0.4973
- Array Heatmap signal (histone peptide microarray) (MLL5): 0.8685
- Array Heatmap signal (histone peptide microarray) (MORC3 (CW)): 0.8723
- Array Heatmap signal (histone peptide microarray) (PHF13): 0.813
- Array Heatmap signal (histone peptide microarray) (PHF21A): 0.4388
- Array Heatmap signal (histone peptide microarray) (PHF23): 1
- Array Heatmap signal (histone peptide microarray) (PHF2): 1
- Array Heatmap signal (histone peptide microarray) (PHF8): 0.6791
- Array Heatmap signal (histone peptide microarray) (PHRF1 (RP)): 0.7444
- Array Heatmap signal (histone peptide microarray) (RAG2): 0.6973
- Array Heatmap signal (histone peptide microarray) (SP140L): 0.3614
- Array Heatmap signal (histone peptide microarray) (TAF3): 0.7205
- Array Heatmap signal (histone peptide microarray) (TRIM66 (PB)): 0.639

Substance: H3K4me3 + R8me2s + K9me3: H3 1-20
- Array Heatmap signal, AIRE (PP) (AIRE (PP); [1]): 0.378
- Array Heatmap signal, BAZ2B (BAZ2B; [1]): 0.4293
- Array Heatmap signal, BPTF (PB) (BPTF (PB); [1]): 0.3866
- Array Heatmap signal, CHD4 (PPCC) (CHD4 (PPCC); [1]): 0.5208
- Array Heatmap signal, CHD5 (PCC) (CHD5 (PCC); [1]): 0.7143
- Array Heatmap signal, CHD5 (PPCC) (CHD5 (PPCC); [1]): 0.5185
- Array Heatmap signal, DIDO1 (DIDO1; [1]): 0.802
- Array Heatmap signal, DPF2 (PPC2W2) (DPF2 (PPC2W2); [1]): 0.6565
- Array Heatmap signal, ING1 (ING1; [1]): 0.7489
- Array Heatmap signal, ING2 (ING2; [1]): 0.784
- Array Heatmap signal, ING3 (ING3; [1]): 0.5388
- Array Heatmap signal, ING4 (ING4; [1]): 0.4627
- Array Heatmap signal, ING5 (ING5; [1]): 0.3819
- Array Heatmap signal, KDM4C (TTP) (KDM4C (TTP); [1]): 0.4847
- Array Heatmap signal, KDM5A (1) (KDM5A (1); [1]): 0.429
- Array Heatmap signal, KDM5A (3) (KDM5A (3); [1]): 0.7166
- Array Heatmap signal, KDM5B (1) (KDM5B (1); [1]): 0.5808
- Array Heatmap signal, KDM5B (3) (KDM5B (3); [1]): 0.5614
- Array Heatmap signal, KDM7A (KDM7A; [1]): 0.3751
- Array Heatmap signal, MLL5 (MLL5; [1]): 0.7037
- Array Heatmap signal, MORC3 (CW) (MORC3 (CW); [1]): 0.5559
- Array Heatmap signal, PHF13 (PHF13; [1]): 0.633
- Array Heatmap signal, PHF21A (PHF21A; [1]): 0.4267
- Array Heatmap signal, PHF23 (PHF23; [1]): 0.6635
- Array Heatmap signal, PHF2 (PHF2; [1]): 0.8739
- Array Heatmap signal, PHF8 (PHF8; [1]): 0.5138
- Array Heatmap signal, PHRF1 (RP) (PHRF1 (RP); [1]): 0.4616
- Array Heatmap signal, RAG2 (RAG2; [1]): 0.4516
- Array Heatmap signal, SP140L (SP140L; [1]): 0.3193
- Array Heatmap signal, TAF3 (TAF3; [1]): 0.3814
- Array Heatmap signal, TRIM66 (PB) (TRIM66 (PB); [1]): 0.6066
